Measurements taken from ChEMBL document CHEMBL5291721, “A preclinical secondary pharmacology resource illuminates target-adverse drug reaction associations of marketed drugs” (Nat Commun, 2023).

Legend:
[1] = target: Cannabinoid receptor 1 (Homo sapiens, UniProt P21554); type: functional, cell-based
[2] = target: T1, 5-hydroxytryptamine receptor 1A (Homo sapiens, UniProt P08908); type: functional, cell-based
T1 sequence (P08908 whole entry): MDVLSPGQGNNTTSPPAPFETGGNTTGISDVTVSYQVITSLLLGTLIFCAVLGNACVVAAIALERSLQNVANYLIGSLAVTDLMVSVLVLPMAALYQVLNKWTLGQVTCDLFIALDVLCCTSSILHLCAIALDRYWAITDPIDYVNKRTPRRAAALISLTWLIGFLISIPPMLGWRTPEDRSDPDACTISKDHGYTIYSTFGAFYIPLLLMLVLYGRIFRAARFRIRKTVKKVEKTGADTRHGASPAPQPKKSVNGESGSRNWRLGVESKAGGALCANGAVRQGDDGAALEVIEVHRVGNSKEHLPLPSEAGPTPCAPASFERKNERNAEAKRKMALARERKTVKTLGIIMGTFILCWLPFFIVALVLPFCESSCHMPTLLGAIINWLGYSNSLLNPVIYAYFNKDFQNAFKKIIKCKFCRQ

[3] = target: T2, Muscarinic acetylcholine receptor M2 (Homo sapiens, UniProt P08172); type: functional, cell-based
T2 sequence (P08172 whole entry): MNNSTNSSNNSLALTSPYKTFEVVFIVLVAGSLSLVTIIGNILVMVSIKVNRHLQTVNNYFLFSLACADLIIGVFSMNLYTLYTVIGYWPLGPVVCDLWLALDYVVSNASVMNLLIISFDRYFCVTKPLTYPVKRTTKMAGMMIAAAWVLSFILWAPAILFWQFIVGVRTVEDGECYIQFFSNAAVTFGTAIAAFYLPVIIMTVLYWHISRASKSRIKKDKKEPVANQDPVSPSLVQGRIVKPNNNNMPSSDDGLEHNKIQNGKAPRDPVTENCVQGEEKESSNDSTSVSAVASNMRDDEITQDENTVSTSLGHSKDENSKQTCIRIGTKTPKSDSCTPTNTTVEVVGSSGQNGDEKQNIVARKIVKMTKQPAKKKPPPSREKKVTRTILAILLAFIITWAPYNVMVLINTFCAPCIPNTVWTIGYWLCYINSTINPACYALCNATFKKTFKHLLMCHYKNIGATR

[4] = target: 5-hydroxytryptamine receptor 2B (Homo sapiens, UniProt P41595); type: functional, cell-based
[5] = target: T3, Progesterone receptor (Homo sapiens, UniProt P06401); type: functional
T3 sequence (P06401 whole entry): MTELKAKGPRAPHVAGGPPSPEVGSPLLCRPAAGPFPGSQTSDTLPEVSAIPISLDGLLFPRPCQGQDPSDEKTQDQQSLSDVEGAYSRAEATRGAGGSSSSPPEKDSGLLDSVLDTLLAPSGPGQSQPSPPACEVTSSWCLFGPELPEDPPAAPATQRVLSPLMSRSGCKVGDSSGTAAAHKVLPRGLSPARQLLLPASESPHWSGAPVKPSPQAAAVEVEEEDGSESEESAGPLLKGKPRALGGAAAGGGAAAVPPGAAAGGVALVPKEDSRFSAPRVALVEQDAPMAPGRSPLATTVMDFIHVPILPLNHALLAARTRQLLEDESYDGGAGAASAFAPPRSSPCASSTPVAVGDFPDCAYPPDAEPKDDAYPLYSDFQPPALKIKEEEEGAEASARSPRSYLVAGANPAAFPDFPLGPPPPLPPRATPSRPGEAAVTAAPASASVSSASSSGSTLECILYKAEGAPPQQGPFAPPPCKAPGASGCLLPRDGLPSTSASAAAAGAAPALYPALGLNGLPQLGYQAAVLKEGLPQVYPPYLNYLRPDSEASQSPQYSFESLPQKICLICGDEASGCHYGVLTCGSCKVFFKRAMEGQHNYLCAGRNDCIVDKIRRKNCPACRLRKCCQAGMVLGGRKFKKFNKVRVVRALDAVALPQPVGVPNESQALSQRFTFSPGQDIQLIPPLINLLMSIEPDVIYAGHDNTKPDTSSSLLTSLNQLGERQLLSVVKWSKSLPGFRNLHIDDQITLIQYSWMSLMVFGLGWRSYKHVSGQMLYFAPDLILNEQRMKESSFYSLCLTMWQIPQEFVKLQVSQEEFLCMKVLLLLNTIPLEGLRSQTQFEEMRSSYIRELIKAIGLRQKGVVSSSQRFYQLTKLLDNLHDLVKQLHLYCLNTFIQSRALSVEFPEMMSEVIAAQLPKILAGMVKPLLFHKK

[6] = target: T4, 5-hydroxytryptamine receptor 3A (Homo sapiens, UniProt P46098); type: functional
T4 sequence (P46098 whole entry): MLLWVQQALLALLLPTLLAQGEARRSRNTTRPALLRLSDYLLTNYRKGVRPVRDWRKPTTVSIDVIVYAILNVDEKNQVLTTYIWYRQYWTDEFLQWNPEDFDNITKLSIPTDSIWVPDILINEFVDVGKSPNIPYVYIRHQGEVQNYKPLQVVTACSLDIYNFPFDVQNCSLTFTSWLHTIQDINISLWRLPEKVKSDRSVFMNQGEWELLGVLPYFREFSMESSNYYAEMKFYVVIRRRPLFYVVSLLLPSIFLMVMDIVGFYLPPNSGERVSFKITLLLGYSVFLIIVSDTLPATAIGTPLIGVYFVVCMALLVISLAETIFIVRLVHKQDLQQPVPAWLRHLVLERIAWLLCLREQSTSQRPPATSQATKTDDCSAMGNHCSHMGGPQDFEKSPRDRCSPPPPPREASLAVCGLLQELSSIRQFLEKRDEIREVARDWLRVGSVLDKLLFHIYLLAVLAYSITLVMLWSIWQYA

[7] = target: D(1A) dopamine receptor (Homo sapiens, UniProt P21728); type: functional, cell-based
[8] = target: T5, Alpha-2C adrenergic receptor (Homo sapiens, UniProt P18825); type: functional
T5 sequence (P18825 whole entry): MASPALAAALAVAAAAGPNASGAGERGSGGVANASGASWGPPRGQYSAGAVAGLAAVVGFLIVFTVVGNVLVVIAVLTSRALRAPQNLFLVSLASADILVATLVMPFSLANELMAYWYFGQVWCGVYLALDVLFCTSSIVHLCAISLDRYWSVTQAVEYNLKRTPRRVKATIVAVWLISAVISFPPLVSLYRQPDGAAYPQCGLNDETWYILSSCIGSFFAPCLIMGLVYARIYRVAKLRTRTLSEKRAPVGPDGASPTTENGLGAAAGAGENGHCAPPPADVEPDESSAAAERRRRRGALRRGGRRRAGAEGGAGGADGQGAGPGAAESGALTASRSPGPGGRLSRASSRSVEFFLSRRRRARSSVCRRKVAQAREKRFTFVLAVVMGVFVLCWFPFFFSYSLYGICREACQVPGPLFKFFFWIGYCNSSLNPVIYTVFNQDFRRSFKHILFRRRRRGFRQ

Measured: AC50
Note: assay procedure not described here.

Cannabinoid receptor 1, sequence (P21554 whole entry): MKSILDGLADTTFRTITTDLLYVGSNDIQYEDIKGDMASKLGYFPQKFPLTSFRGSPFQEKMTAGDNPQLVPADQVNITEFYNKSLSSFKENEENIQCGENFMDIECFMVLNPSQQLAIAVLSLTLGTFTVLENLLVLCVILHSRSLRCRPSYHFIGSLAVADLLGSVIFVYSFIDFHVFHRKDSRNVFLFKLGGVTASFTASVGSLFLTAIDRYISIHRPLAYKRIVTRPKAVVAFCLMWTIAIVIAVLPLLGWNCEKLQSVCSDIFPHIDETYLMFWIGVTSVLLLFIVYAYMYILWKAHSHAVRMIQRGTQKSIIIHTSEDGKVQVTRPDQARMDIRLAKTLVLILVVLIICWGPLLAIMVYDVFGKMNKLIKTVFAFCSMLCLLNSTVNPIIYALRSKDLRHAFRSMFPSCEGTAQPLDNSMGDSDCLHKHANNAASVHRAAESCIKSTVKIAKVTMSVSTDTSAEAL
5-hydroxytryptamine receptor 2B, sequence (P41595 whole entry): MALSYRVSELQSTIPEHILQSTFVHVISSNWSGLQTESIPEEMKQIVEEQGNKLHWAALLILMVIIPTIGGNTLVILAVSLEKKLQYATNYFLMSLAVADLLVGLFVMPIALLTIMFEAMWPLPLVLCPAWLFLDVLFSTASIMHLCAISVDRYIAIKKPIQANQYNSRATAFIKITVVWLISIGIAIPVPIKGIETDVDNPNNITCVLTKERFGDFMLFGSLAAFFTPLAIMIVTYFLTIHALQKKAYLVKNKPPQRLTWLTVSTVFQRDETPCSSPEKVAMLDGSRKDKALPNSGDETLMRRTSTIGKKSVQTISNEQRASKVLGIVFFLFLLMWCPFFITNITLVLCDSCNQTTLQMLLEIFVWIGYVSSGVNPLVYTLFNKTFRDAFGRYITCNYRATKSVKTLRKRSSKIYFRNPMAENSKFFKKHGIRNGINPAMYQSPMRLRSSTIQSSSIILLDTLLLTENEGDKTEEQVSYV
D(1A) dopamine receptor, sequence (P21728 whole entry): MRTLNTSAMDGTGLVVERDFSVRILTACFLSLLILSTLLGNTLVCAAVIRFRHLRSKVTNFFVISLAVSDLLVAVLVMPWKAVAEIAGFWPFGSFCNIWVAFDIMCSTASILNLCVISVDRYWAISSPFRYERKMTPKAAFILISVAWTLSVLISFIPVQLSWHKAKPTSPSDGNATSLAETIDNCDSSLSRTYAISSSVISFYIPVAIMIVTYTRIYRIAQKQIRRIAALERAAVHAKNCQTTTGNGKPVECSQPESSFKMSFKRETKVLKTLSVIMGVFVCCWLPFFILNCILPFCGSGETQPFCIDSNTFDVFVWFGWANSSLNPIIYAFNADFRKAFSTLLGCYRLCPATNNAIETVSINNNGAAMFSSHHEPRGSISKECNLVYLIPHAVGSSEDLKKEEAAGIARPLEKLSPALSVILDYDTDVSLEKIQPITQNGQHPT

Nc1nc(Cl)nc2c1ncn2[C@H]1C[C@H](O)[C@@H](CO)O1 [CLADRIBINE]
> 30 µM: all assays above

Fc1ccc(C(c2ccccc2)(c2ccccc2F)n2ccnc2)cc1 (configuration not stated) [FLUTRIMAZOLE]
> 30 µM: all assays above

NC(=O)CN1CC(O)CC1=O (configuration not stated) [OXIRACETAM]
> 30 µM: all assays above

C[C@@H]1O[C@@H](O[C@@H]2C=C3CC[C@@H]4[C@H](CC[C@]5(C)[C@@H](c6ccc(=O)oc6)CC[C@]45O)[C@@]3(C)CC2)[C@H](O)[C@H](O)[C@H]1O [PROSCILLARIDIN]
> 30 µM: all assays above
